From patent publication US9283277B2, “Methods and compositions for the treatment of obesity” (Children's Medical Center Corporation, priority 2008, dated 2016)

Key:
db/db mice = experiment: PBA and leptin co-administration in db/db mice; format: in vivo; details: for body weight / food consumption / food intake: PBA 1 g/kg/day oral and/or leptin 1 mg/kg IP, 16 days
Method: Six-week old db/db mice were orally treated with either PBA (1 g/kg/day) or VEH for four days. Following the pretreatment period, leptin receptor-deficient db/db mice were either administered with VEH or leptin (1 mg/kg) through intraperitoneal route for 16 days. (a) Bodyweight (g), (b) percent increase in bodyweight and (c) 24-hour food intake, (d) Blood glucose (mg/dl) levels of the groups. (n=5 in each group). Error bars are ±S.E.M., P values are determined by Student's t-test. (*p<0.05, **p<0.01, ***p<0.001).
We investigated whether the effect created by PBA and leptin combinatory treatment is solely mediated through the LepRb and not due to a non-specific effect. First, we pretreated db/db mice with PBA or vehicle for four days and subsequently initiated the leptin (1 mg/kg) treatment.

ob/ob mice = experiment: TUDCA pretreatment and leptin in ob/ob mice (bodyweight, metabolic cage, DEXA); format: in vivo
Method: (a) Hypothalamic PERK phosphorylation (Thr980) after 21 days of vehicle or TUDCA (150 mg/kg/day) treatment. Following a five-day pretreatment with TUDCA (150 mg/kg/day) or vehicle, nine-ten week old ob/ob mice were treated either with leptin (1 mg/kg/day) or vehicle. (b) Body weight (g), (c) % decrease in body weight, (d) daily food intake of the ob/ob mice during 18 days of treatment period with the indicated regimens. (e) Blood glucose (mg/dl) levels at the 18th day of treatment. Metabolic cage studies were performed; (f) CO2 production (ml/kg/hr), (g) O2 consumption (ml/kg/hr), (h) Respiratory exchange ratio (VCO2/VO2), (i) X-axis ambulatory activity, (j) Heat generation (kcal/hr). Dexa scan analysis of (k) total fat amount (g), (l) fat % and (m) lean body mass (g). C57BL/6 male wt mice were kept on HFD feeding for 32 weeks and following a five day acclimation period were pretreated with TUDCA (150 mg/kg/day) for five days. At the end of pretreatment period intraperitoneal vehicle and leptin (1 mg/kg/day) treatments were started. (n) Body weight (g), (o) % decrease in bodyweight of the HFD-fed mice during the 16-day treatment. (n=6 for VEH, n=7 for Lep, n=7 for TUD, n=8 for TUD+Lep group). Error bars are ±S.E.M., P values are determined by Student's t-test. (*p<0.05, **p<0.01, ***p<0.001)
If the postulate that reduction of ER stress in the hypothalamus increases leptin sensitivity is true, chemical chaperones other than PBA should also create the same effect and sensitize the obese mice to leptin. TUDCA is a hydrophilic bile acid, which has a completely different structure than PBA, but has chemical chaperone activity in common^25. First, we investigated whether TUDCA can reduce ER stress in the hypothalamus of the ob/ob mice. For this purpose we treated ob/ob mice either with vehicle or TUDCA (150 mg/kg/day) for a period of 21 days and analyzed the hypothalamic PERK phosphorylation. […] To address this question we first pretreated the ob/ob mice with TUDCA (150 mg/kg/day) for 5 days and subsequently initiated leptin (1 mg/kg) treatment. […] Body weight of the ob/ob mice decreased further with leptin and TUDCA co-treatment and reached to 34.39±1.30 g from 50.55±1.14 g (Lep vs. TUD+Lep, p<0.001). […] Furthermore, to investigate the metabolic homeostasis in more detail, we placed the mice in metabolic cages. […] Heat generation was the same between the groups (FIG. 5j). Next, we analyzed the whole body fat composition by DEXA scan. […] Finally, analysis of lean mass has shown that none of the treatments lead to a significant change in this parameter ([…]). We additionally investigated the effect of TUDCA and leptin co-treatment on C57BL/6 wt-lean mice.
We next tested the efficacy of TUDCA as a leptin sensitizer in the HFD-induced obesity model. In this experiment we used 35 weeks old and C57BL/6 wt mice, which were kept on HFD-feeding for 32 weeks. We divided the mice into two groups for TUDCA and TUDCA-leptin co-treatment. Body weight of the mice in this cohort was between 35-52 g. We specifically chose the mice with the highest bodyweight for TUDCA and leptin co-treatment group to investigate whether leptin will become effective in these severely obese mice when administered along with the TUDCA. The initial body weight of the TUDCA group was 38.33±1.16 (g) and TUDCA+leptin group was 48.46±1.82 (g) (FIG. 5n). […]

## O=C(O)CCCc1ccccc1 [PBA, 4-phenyl butyric acid]
db/db mice
  body weight: significantly gained weight
  food consumption / food intake: no difference
db/db mice; PBA 1 g/kg/day oral vs vehicle
  blood glucose levels: reduced to a significantly lower level

## C[C@H](CCC(=O)NCCS(=O)(=O)O)[C@H]1CC[C@H]2[C@@H]3[C@@H](O)C[C@@H]4C[C@H](O)CC[C@]4(C)[C@H]3CC[C@]12C [TUDCA, tauroursodeoxycholic acid]
ob/ob mice; 18th day of treatment, TUDCA 150 mg/kg/day, leptin 1 mg/kg/day
  blood glucose levels: lowered
ob/ob mice; TUDCA 150 mg/kg/day alone
  body weight: did not decrease

## leptin: adipocyte-derived hormone that suppresses appetite
db/db mice
  body weight: did not decrease
  food consumption / food intake: did not decrease
ob/ob mice; before leptin 1 mg/kg, with or without TUDCA 150 mg/kg/day
  initial body weight: 50.50 ± 0.55 g
ob/ob mice; leptin 1 mg/kg/day, 18 days, with or without TUDCA 150 mg/kg/day
  percent decrease from the initial body weight: 9.27±1.34%
ob/ob mice; leptin 1 mg/kg/day, 18 days, with or without TUDCA 150 mg/kg/day (5 days pretreatment)
  body weight after treatment: 43.75 ± 0.22 g
